Assay results: PubChem BioAssay AID328 (DTP/NCI, 2004)
Where “and” joins values, the source holds several entries; their conditions need not be identical. Identical values can stand only once. Toxic doses and inconclusive results are not listed. Residues, ends and D or L forms follow the SMILES beside them. *: point of attachment. Cbz = O=C(OCc1ccccc1)*

Test system: BDF1 mice, P388 leukemia ip, median survival T/C
Test: NCI In Vivo Anticancer Drug Screen. Data for tumor model P388 Leukemia (intraperitoneal) in B6D2F1 (BDF1) mice
Details: endpoint: median survival time, higher = longer survival
How it was run: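 Steps: implant the tumour, treat one group with compound and another with vehicle, record survival, then divide treated by control.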

[1] = dose: 100.0 mg/kg/injection, schedule: Q01DX009 (ip), vehicle: Klucel (hydroxypropylcellulose) (HPC)
[2] = dose: 200.0 mg/kg/injection, schedule: Q01DX009 (ip), vehicle: Klucel (hydroxypropylcellulose) (HPC)
[3] = dose: 1.56 mg/kg/injection, schedule: Q01DX009 (ip), vehicle: saline
[4] = dose: 3.12 mg/kg/injection, schedule: Q01DX009 (ip), vehicle: saline
[5] = dose: 6.25 mg/kg/injection, schedule: Q01DX009 (ip), vehicle: saline
[6] = dose: 50.0 mg/kg/injection, schedule: Q01DX009 (ip), vehicle: saline with Tween-80
[7] = dose: 100.0 mg/kg/injection, schedule: Q01DX009 (ip), vehicle: saline with Tween-80
[8] = dose: 200.0 mg/kg/injection, schedule: Q01DX009 (ip), vehicle: saline with Tween-80
[9] = dose: 50.0 mg/kg/injection, schedule: Q01DX009 (ip), vehicle: saline
[10] = dose: 50.0 mg/kg/injection, schedule: Q04DX003 (ip), vehicle: saline

Cc1ccccc1C1c2ccccc2C(=O)c2cccc(C)c21 (configuration not stated)
T/C (dose: 100.0 mg/kg/injection, schedule: Q01DX001 (ip), vehicle: Klucel (hydroxypropylcellulose) (HPC)): 104 % of control | T/C [1]: 105 % of control | T/C (dose: 100.0 mg/kg/injection, schedule: Q04DX003 (ip), vehicle: Klucel (hydroxypropylcellulose) (HPC)): 100 % of control | T/C (dose: 200.0 mg/kg/injection, schedule: Q01DX001 (ip), vehicle: Klucel (hydroxypropylcellulose) (HPC)): 109 % of control | T/C [2]: 100 % of control | T/C (dose: 200.0 mg/kg/injection, schedule: Q04DX003 (ip), vehicle: Klucel (hydroxypropylcellulose) (HPC)): 95 % of control | T/C (dose: 400.0 mg/kg/injection, schedule: Q01DX001 (ip), vehicle: Klucel (hydroxypropylcellulose) (HPC)): 100 % of control | T/C (dose: 400.0 mg/kg/injection, schedule: Q01DX009 (ip), vehicle: Klucel (hydroxypropylcellulose) (HPC)): 100 % of control | T/C (dose: 400.0 mg/kg/injection, schedule: Q04DX003 (ip), vehicle: Klucel (hydroxypropylcellulose) (HPC)): 108 % of control

c1cc[n+](CCSCCSCC[n+]2ccccc2)cc1
T/C [3]: 120 % of control | T/C (dose: 2.3 mg/kg/injection, schedule: Q04DX003 (ip), vehicle: saline): 122 % of control | T/C (dose: 3.0 mg/kg/injection, schedule: Q04DX003 (ip), vehicle: saline): 104 % of control and 113 % of control | T/C [4]: 105 % of control | T/C (dose: 4.6 mg/kg/injection, schedule: Q04DX003 (ip), vehicle: saline): 100 % of control and 109 % of control | T/C [5]: 105 % of control | T/C (dose: 6.9 mg/kg/injection, schedule: Q04DX003 (ip), vehicle: saline): 109 % of control | T/C (dose: 9.2 mg/kg/injection, schedule: Q01DX009 (ip), vehicle: saline): 88 % of control | T/C (dose: 9.2 mg/kg/injection, schedule: Q04DX003 (ip), vehicle: saline): 100 % of control | T/C (dose: 13.0 mg/kg/injection, schedule: Q04DX003 (ip), vehicle: saline): 100 % of control

C(=C\CN(Cc1ccccc1)Cc1ccccc1)/CN(Cc1ccccc1)Cc1ccccc1
T/C (dose: 50.0 mg/kg/injection, schedule: Q01DX009 (ip), vehicle: Klucel (hydroxypropylcellulose) (HPC)): 104 % of control | T/C [1]: 104 % of control | T/C [2]: 95 % of control

O=S1(=O)C=CCC2C3CCC(C3)C21 (configuration not stated)
T/C (dose: 100.0 mg/kg/injection, schedule: Q01DX001 (ip), vehicle: saline with Tween-80): 100 % of control | T/C (dose: 200.0 mg/kg/injection, schedule: Q01DX001 (ip), vehicle: saline with Tween-80): 106 % of control

COC(=O)/C=C\SC(=S)C1CCCC1=O (configuration not stated)
T/C [6]: 119 % of control | T/C [7]: 110 % of control | T/C [8]: 112 % of control

C/C(=N\NC(=O)CC(=O)N/N=C(\C)c1ccncc1)c1ccncc1
T/C (dose: 75.0 mg/kg/injection, schedule: Q01DX009 (ip), vehicle: saline with Tween-80): 99 % of control | T/C (dose: 150.0 mg/kg/injection, schedule: Q01DX009 (ip), vehicle: saline with Tween-80): 90 % of control | T/C (dose: 300.0 mg/kg/injection, schedule: Q01DX009 (ip), vehicle: saline with Tween-80): 94 % of control

c1ccc(Cn2ccnc2C2OCCO2)cc1
T/C (dose: 6.25 mg/kg/injection, schedule: Q01DX009 (ip), vehicle: water): 95 % of control | T/C (dose: 12.5 mg/kg/injection, schedule: Q01DX009 (ip), vehicle: water): 88 % of control | T/C (dose: 12.5 mg/kg/injection, schedule: Q04DX003 (ip), vehicle: water): 104 % of control | T/C (dose: 25.0 mg/kg/injection, schedule: Q04DX003 (ip), vehicle: water): 101 % of control | T/C (dose: 50.0 mg/kg/injection, schedule: Q01DX009 (ip), vehicle: water): 112 % of control | T/C (dose: 50.0 mg/kg/injection, schedule: Q04DX003 (ip), vehicle: water): 107 % of control | T/C (dose: 100.0 mg/kg/injection, schedule: Q01DX009 (ip), vehicle: water): 93 % of control | T/C (dose: 100.0 mg/kg/injection, schedule: Q04DX003 (ip), vehicle: water): 92 % of control | T/C (dose: 200.0 mg/kg/injection, schedule: Q01DX009 (ip), vehicle: water): 87 % of control

CC(=O)OC1C=CCC23C(=O)C=CC(=O)C12C(=O)c1ccccc1C3=O (configuration not stated)
T/C [3]: 102 % of control | T/C [4]: 93 % of control | T/C [5]: 95 % of control | T/C (dose: 12.5 mg/kg/injection, schedule: Q01DX009 (ip), vehicle: saline): 95 % of control | T/C [9]: 107 % of control

COc1cccc(N2C(=O)CSC2=S)c1
T/C [7]: 91 % of control | T/C [8]: 100 % of control

C/C1=C/CCCCCC1
T/C (dose: 100.0 mg/kg/injection, schedule: Q01DX009 (ip), vehicle: saline): 104 % of control | T/C (dose: 100.0 mg/kg/injection, schedule: Q04DX003 (ip), vehicle: saline): 95 % of control | T/C (dose: 200.0 mg/kg/injection, schedule: Q01DX009 (ip), vehicle: saline): 90 % of control | T/C (dose: 200.0 mg/kg/injection, schedule: Q04DX003 (ip), vehicle: saline): 100 % of control | T/C (dose: 400.0 mg/kg/injection, schedule: Q01DX009 (ip), vehicle: saline): 113 % of control | T/C (dose: 400.0 mg/kg/injection, schedule: Q04DX003 (ip), vehicle: saline): 95 % of control

O/N=C1/CCCc2ccccc21
T/C [7]: 86 % of control | T/C [8]: 86 % of control | T/C (dose: 400.0 mg/kg/injection, schedule: Q01DX009 (ip), vehicle: saline with Tween-80): 86 % of control

O=C(NC(=O)c1c(F)cccc1F)Nc1ccc(Br)cc1
T/C [6]: 101 % of control | T/C [7]: 100 % of control | T/C [8]: 96 % of control

NNC(=O)[C@H]1CC[C@H]1C(=O)NN
T/C (dose: 25.0 mg/kg/injection, schedule: Q01DX009 (ip), vehicle: saline): 95 % of control | T/C [9]: 109 % of control

O=C(O)C(Cc1ccccc1)NC(=O)C1CCCN1C(=O)OCc1ccccc1 (stereo not drawn) (Cbz-Pro-Phe-OH; configuration not given here)
T/C (dose: 50.0 mg/kg/injection, schedule: Q01DX005 (ip), vehicle: saline with Tween-80): 97 % of control | T/C (dose: 100.0 mg/kg/injection, schedule: Q01DX005 (ip), vehicle: saline with Tween-80): 101 % of control | T/C (dose: 200.0 mg/kg/injection, schedule: Q01DX005 (ip), vehicle: saline with Tween-80): 95 % of control

COc1cccc2ccc(CC(O)(c3ccccc3)c3ccccc3)nc12
T/C (dose: 25.0 mg/kg/injection, schedule: Q01DX009 (ip), vehicle: saline with Tween-80): 91 % of control | T/C [6]: 100 % of control | T/C [7]: 100 % of control

COC(=O)C1=COC(C)C(C=O)C1CC(=O)O (configuration not stated)
T/C (dose: 10.0 mg/kg/injection, schedule: Q04DX003 (ip), vehicle: saline): 113 % of control | T/C (dose: 22.0 mg/kg/injection, schedule: Q04DX003 (ip), vehicle: saline): 122 % of control | T/C (dose: 33.0 mg/kg/injection, schedule: Q04DX003 (ip), vehicle: saline): 120 % of control | T/C [10]: 172 % of control | T/C (dose: 75.0 mg/kg/injection, schedule: Q04DX003 (ip), vehicle: saline): 95 % of control

N#CCSc1ncnc2nc[nH]c12
T/C (dose: 30.0 mg/kg/injection, schedule: Q01DX010 (ip), vehicle: saline): 95 % of control and 100 % of control | T/C (dose: 60.0 mg/kg/injection, schedule: Q01DX010 (ip), vehicle: saline): 100 % of control | T/C (dose: 120.0 mg/kg/injection, schedule: Q01DX010 (ip), vehicle: saline): 100 % of control

O=C(C[N+]12CN3CN(CN(C3)C1)C2)c1ccc(Cl)cc1
T/C (dose: 25.0 mg/kg/injection, schedule: Q04DX003 (ip), vehicle: saline): 100 % of control | T/C (dose: 44.0 mg/kg/injection, schedule: Q04DX003 (ip), vehicle: saline sonified): 104 % of control | T/C [6]: 107 % of control | T/C [10]: 110 % of control | T/C (dose: 66.0 mg/kg/injection, schedule: Q04DX003 (ip), vehicle: saline sonified): 118 % of control | T/C [7]: 119 % of control | T/C [8]: 119 % of control

Clc1nn2cnnc2c2ccccc12
T/C (dose: 5.0 mg/kg/injection, schedule: Q01DX009 (ip), vehicle: saline): 101 % of control | T/C (dose: 10.0 mg/kg/injection, schedule: Q01DX009 (ip), vehicle: saline): 101 % of control

CCCCCCCCCCSc1ncnc2nc[nH]c12
T/C [6]: 87 % of control | T/C (dose: 100.0 mg/kg/injection, schedule: Q04DX003 (ip), vehicle: saline with Tween-80): 100 % of control | T/C [8]: 108 % of control | T/C (dose: 200.0 mg/kg/injection, schedule: Q04DX003 (ip), vehicle: saline with Tween-80): 100 % of control
